Laboratory results from patent US12193465B2, “Materials and methods for extending shelf-life of foods” (JP Laboratories, Inc., priority 2021, dated 2025).

What was measured:
[1] = tested on: fungus; test: Fungus growth on treated foods stored in closed containers at room temperature; details: for Spoilage Time - Sample: Fungus; for Effectiveness on ginger: pre-exposure and sachet method
Text: (§1) Most of the foods changed color or texture.
Glass jars and bottles were also used. The containers were snap-closed or with a lid.
(§2) These bags were sealed with a heat sealer.
(§3) The assembly was shaken periodically.

[2] = Color change / browning / yellowing of foods (keeping produce green longer)
Description: (§4) All studies were conducted at a room temperature of about 25° C. To determine the effectiveness of a shelf-life extender, a control sample which was untreated with any shelf-life extenders, was tested identical to the test samples. […] All studies in those Examples of Tables 1-6 were conducted in closed plastic or glass containers. Containers, such as plastic containers, without or with lids having holes can be used if it is advantageous to let excess moisture escape or to prevent condensation of moisture released by some produce.
(§5) Food exposed to preservatives or by a sachet was placed in typically polystyrene or acrylic containers depending upon the size and number of food items. Glass jars and bottles were also used. The containers were snap-closed or with a lid. The containers were purchased mainly from Amazon or Webstaurant.com store. When needed, plastic containers with holes or without lids were used.
(§6) For controlled exposure and a constant supply of a preservative to foods, sachets containing one or more drops of preservatives were used. Sachets were made by placing an appropriate amount of a preservative in a plastic bag containing a piece of paper and heat sealing the bag. The sachet bag materials used were Tyvek® for solid preservative, polyethylene, polyester and high barrier multilayer films were used for liquid preservatives. These bags were sealed with a heat sealer. The sachet was typically applied on one side of the container containing food.
(§7) A piece of paper napkin was taped inside a 100 microns thick polyethylene or polyester Ziploc bag. The size of the bag varied from ˜20 cm×30 cm to ˜60 cm×90 cm depended on the sample with sandwich bags up to gallon bags being exemplary. The paper napkin was wetted with 0.1-0.5 ml of a preservative or a mixture of preservatives. A tray of aluminum, stainless steel or glass containing the foods was placed inside the plastic (polyethylene, polyester and multilayer-laminated) bag and almost closed by locking the Ziploc. Air was blown with an air blower from the unclosed end until the bag was fully blown and then quickly closed tightly by locking the remaining Ziploc. If a preservative was a sublimable solid, it was placed in a petri dish and then placed inside the bag in the tray before blowing air. The exposure time was varied from five minutes to a day depending upon the food. […] The assembly was shaken periodically. After the predetermined time, the tray containing produce was removed from the bag, allowed to de-gas for 10-30 minutes in air and the produce was then placed in an appropriately sized container. Glass and stainless steel containers with lids were also often used.
(§8) A solution of one or more preservatives was prepared in a large (e.g., 2-10 liter) glass beaker or a jar. A sack containing the food was prepared by placing the food in a plastic mesh bag. The sack was placed in the solution of the preservative. A smaller glass beaker containing proper amount of water was place over the package to keep the sack soaked in the solution of the preservative during the treatment. The solution was stirred either with a plastic spatula or with a magnet over a magnetic stirrer. After treatment, the mesh sack was removed, the produce was washed in a tray with running water, strained and air dried at 30° C. in an air blowing oven for about 5-10 minutes, while shaking the tray or turning the food periodically followed by placing the sample in an appropriate container.
(§9) The food was placed in mesh trays and sprayed with an aqueous solution (1-10%) of a preservative while shaking the tray or turning the food. The solution was allowed to drain from the tray and the food was air dried in an air blowing oven at 30° C. for about 5-10 minutes, while shaking the tray or turning food periodically followed by placing the sample in an appropriate container.

[3] = tested on: grains, legumes, potatoes, garlic; test: Germination / sprouting of grains, legumes and tubers; details: for Spoilage Time - Sample: Example 129, Sprouting, Small yellow potatoes, Sachet, 100% relative humidity, control 8 days
Text: as §2, §3

[4] = tested on: green tomato, papaya, banana, mango, peppers, tindora; test: Ripening of fruits and vegetables (delayed or expedited); details: Ripening, Green tomato, 2 hrs P-E
Description: as §4, §6, §7, §8
The untreated (control sample) and treated food were placed in proper sized plastic containers and the containers were tightly closed.
The following major criteria were used for determining spoilage of foods: growth of fungus, color change, unpleasant odor, wilting, firmness or shriveling, change of state (liquid to solid or vice versa), and sprouting or germination Example 10: Sources of food.

[5] = tested on: avocado; test: Softening / rotten inside (spoiled flesh) of avocado
Text: as §1, §3

[6] = tested on: parval, methi, coriander, radish, guar; test: Shriveling / wilting / dehydration / becoming wet of produce; details: Example 130, Wilting, Coriander, 1 hr P-E, control 11 days
Text: as §1, §3

[7] = tested on: cut lilies; test: Keeping cut flowers longer (browning of petals); details: Example 118, 0.01% solution, control <12 days
Text: Other preservative tested with flowers include: cyclohexanone, 2-cyclohexen-1-one, 1-methyl-1-cyclopentene, 3-methoxyphenylboronic acid, 3-chlorophenylboronic acid, benzyl ether, choline chloride and hydrogen sulfide. Flowers can be exposed to very low concentration, e.g., in ppm, of vapor of the shelf-life extenders to keep them fresher longer.

[8] = General shelf-life extension of foods (spoilage criteria of Example 9); details: for Effectiveness for controlling one or more spoilage criteria: variety of foods
Description: as §4, §5, §6, §7, §8, §9

[9] = Color loss of meat and fish; details: meat and fish
Text: as §1, §2

In the case of CC(=O)CC(C)=O [AA, Acetylacetone], the “Spoilage Time - Sample” value ([1]; Example 120, Farmer's cheese, 0.5 hr P-E, control 5 days) is reported as 34 days, the “Spoilage Time - Sample” value ([1]; Example 120, Farmer's cheese, 0.5 hr P-E, control 5 days, listed as Acetylacetone) is reported as “delayed the growth of fungus” and the “Spoilage Time - Sample” value ([1]; Example 122, Raw milk Ricotta cheese, Sachet, control 3 days) is reported as 35 days. For the same compound, the “Spoilage Time - Sample” value ([1]; Example 123, Raspberry, 1 hr P-E, control 5 days) was 31 days, the “Spoilage Time - Sample” value ([1]; Example 124, Yellow pearl onions, Sachet, control 24 days) was 48 days and the Effectiveness on ginger [1] was “found effective”. The Fungus growth ([1]; strawberries, raspberries, blackberries and lychee) was “either prevented or significantly delayed”, the “Spoilage Time - Sample” value ([2]; Example 119, Color change, Parsley, 0.25 hr P-E, control 7 days) was 21+ days and the “Spoilage Time - Sample” value ([2]; Example 119, Color change, Parsley, 0.25 hr P-E, control 7 days, listed as acetylacetone) was greater than 21 days. For the same compound, the “Spoilage Time - Sample” value [3] was 48+ days, the “Spoilage Time - Sample” value ([3]; listed as acetylacetone) was greater than 48 days and the “Spoilage Time - Sample” value ([4]; Example 126, control 14 days) was 18 days. The “Spoilage Time - Sample” value ([4]; Example 126, control 14 days, listed as acetylacetone) was “significantly delayed”, the “Spoilage Time - Sample” value ([5]; Example 127, Rotten inside, Avocado, 1 hr P-E, control 7 days) was 9 days and the “Spoilage Time - Sample” value ([5]; Example 127, Rotten inside, Avocado, 1 hr P-E, control 7 days, listed as acetylacetone) was greater than 9 days. For the same compound, the “Spoilage Time - Sample” value ([5]; Example 128, Rotten inside, Haas Avocado, 1 hr P-E, control 11 days) was 11 days, the “Spoilage Time - Sample” value [6] was 21+ days and the “Spoilage Time - Sample” value ([6]; listed as acetylacetone) was greater than 21 days. The “Spoilage Time - Sample” value [7] was 12+ days, the “Spoilage Time - Sample” value ([7]; listed as acetylacetone) was greater than 12 days and the “Shelf-life of flowery vegetables” value [8] was “extended shelf-life”. For the same compound, the “Effectiveness for controlling one or more spoilage criteria” value [8] was “effective to a greater or lesser extent”.

In the case of O=C1CCCCC1 [CY, Cyclohexanone], the “Spoilage Time - Sample” value ([1]; Example 93, Raspberry, Sachet, control 5 days) is reported as 9 days, the “Spoilage Time - Sample” value ([1]; Example 95, Blueberry, Sachet, control 5 days) is reported as 67 days and the “Spoilage Time - Sample” value ([1]; Example 96, Farmer's cheese, 0.5 hr P-E, control 5 days) is reported as 34 days. The “Spoilage Time - Sample” value ([1]; Example 96, Farmer's cheese, 0.5 hr P-E, control 5 days, listed as cyclohexanone) was “delayed the growth of fungus”, the “Spoilage Time - Sample” value ([1]; Example 98, Lychee, Sachet, control 3 days) was 31 days and the “Spoilage Time - Sample” value ([1]; Example 99, Cheesecake, Sachet, control 6 days) was 8+ days. The “Spoilage Time - Sample” value ([1]; Example 100, Puri, 16 hrs P-E, control 5 days) was 70+ days, the “Spoilage Time - Sample” value ([1]; Example 101, Rotala, 16 hrs P-E, control 5 days) was 70+ days and the “Spoilage Time - Sample” value ([1]; Example 102, Monterey cheese, Sachet, control 7 days) was 10+ days. For the same compound, the “Spoilage Time - Sample” value ([1]; Example 102, Monterey cheese, Sachet, control 7 days, listed as cyclohexanone) was “either prevented or significantly delayed”, the Fungus growth ([1]; Indian millet bread, Indian wheat bread (roti), cheesecake, sachet or pre-exposure to vapors) was “either prevented or significantly delayed” and the Effectiveness on ginger [1] was “found effective”. The “Spoilage Time - Sample” value ([2]; Example 92, Browning, Coriander, Sachet, control 11 days) was 11+ days, the “Spoilage Time - Sample” value ([2]; Example 92, Browning, Coriander, Sachet, control 11 days, listed as cyclohexanone) was “significantly delayed” and the “Effectiveness at extending the shelf-life of potatoes” value ([3]; potatoes) was “effective”. For the same compound, the “Spoilage Time - Sample” value ([4]; Example 106, control 10 days) was 18 days, the “Spoilage Time - Sample” value ([5]; Example 107, Softening, Florida avocado, 2 hrs P-E, control 2 days) was 2 days and the “Spoilage Time - Sample” value ([5]; Example 108, Softening, Avocado, 2 hrs P-E, control 2 days) was 2 days. For the same compound, the “Spoiling of the flesh with development of fungus” value ([5]; avocados, Examples 77, 78, 107, 108, 113 & 171) was “significantly delayed”, the “Improvements with meat and fish” value [9] was “demonstrated improvements” and the “Shelf-life of flowery vegetables” value [8] was “extended shelf-life”. For the same compound, the “Shelf-life of shelled and unshelled peanuts” value ([8]; peanuts) was “extended”, the “Effectiveness as shelf-life extender” value ([8]; tofu) was “effective” and the “Effectiveness for controlling one or more spoilage criteria” value [8] was “effective to a greater or lesser extent”.
